Entries after “also recorded” stand apart in the source; their conditions may differ.
System: Human skin-derived iPS cells (253G1)
Assay type: cell-based

Substance: hemagglutinin [HA complex]
- differentiation into other cells (RPE cell versus cell group with fibroblast-like morphology): <<cell group; also recorded: <cell group
- formation of cell aggregates in three-dimensional layer structure: small cell; also recorded: smaller cell
- intercellular adhesion of the cell aggregates: moderately loosened
- number of cells that differentiated into RPE cells: increased strikingly
- number of fibroblast-like cell groups (undesired cells observed together with RPE cells): decreased
- size of the cell aggregates: became smaller
